From patent US9567336B2, “Conjugated TLR7 and/or TLR8 and TLR2 agonists” (CAYLA, priority 2012, dated 2017)

How the values were obtained:
[1] = molecular target: T1, human TLR7 (Homo sapiens, UniProt Q9NYK1); assay: HEK-Blue hTLR7 NF-κB/AP-1 SEAP reporter cell assay; format: cell-based; conditions: HEK-Blue hTLR7 reporter cells, 10 μg/mL to 10 pg/ml, 24 hours, OD at 655 nm; FIGS. 1A, 1B
T1 construct: host or cells: HEK293 (HEK-Blue hTLR7)
T1 sequence (Q9NYK1 27-1049): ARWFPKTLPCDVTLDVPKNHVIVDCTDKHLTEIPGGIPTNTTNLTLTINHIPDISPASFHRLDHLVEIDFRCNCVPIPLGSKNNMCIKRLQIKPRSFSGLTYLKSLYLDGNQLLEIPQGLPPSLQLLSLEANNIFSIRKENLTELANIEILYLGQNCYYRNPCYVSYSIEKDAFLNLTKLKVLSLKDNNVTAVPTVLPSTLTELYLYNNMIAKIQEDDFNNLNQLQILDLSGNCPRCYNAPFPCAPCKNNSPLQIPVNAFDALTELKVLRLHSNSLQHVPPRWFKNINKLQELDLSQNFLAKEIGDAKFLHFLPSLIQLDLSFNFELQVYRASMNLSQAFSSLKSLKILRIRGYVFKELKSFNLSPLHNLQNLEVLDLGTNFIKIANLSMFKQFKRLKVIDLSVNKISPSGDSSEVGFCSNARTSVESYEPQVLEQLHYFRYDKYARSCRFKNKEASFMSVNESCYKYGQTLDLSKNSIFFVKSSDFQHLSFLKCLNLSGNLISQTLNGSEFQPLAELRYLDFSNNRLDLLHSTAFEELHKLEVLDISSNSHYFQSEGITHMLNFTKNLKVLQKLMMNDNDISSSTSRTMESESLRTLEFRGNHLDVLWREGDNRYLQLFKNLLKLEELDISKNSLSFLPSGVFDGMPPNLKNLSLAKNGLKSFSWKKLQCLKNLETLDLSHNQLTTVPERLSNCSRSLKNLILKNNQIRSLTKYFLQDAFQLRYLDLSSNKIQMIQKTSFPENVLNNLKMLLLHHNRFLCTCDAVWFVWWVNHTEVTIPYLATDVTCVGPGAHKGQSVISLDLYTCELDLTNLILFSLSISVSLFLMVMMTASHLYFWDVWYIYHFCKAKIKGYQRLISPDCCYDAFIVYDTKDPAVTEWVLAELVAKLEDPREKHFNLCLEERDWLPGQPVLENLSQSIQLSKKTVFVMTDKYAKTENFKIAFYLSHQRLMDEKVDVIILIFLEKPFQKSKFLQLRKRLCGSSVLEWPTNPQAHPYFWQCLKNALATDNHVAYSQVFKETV
Experimental: (§1) Some conjugated compounds of the invention were tested for their ability to activate TLR7 and TLR2 receptor signaling. Cell-based assays were carried out using TLR7 and TLR2 reporter cell lines (InvivoGen). The reporter cell lines are engineered HEK293 cells, a human embryonic kidney cell line (ATCC, CRL-1573) that stably express either murine TLR7 (HEK-Blue™ mTLR7) or human TLR7 (HEK-Blue™ hTLR7) or murine TLR2 (HEK-Blue™ mTLR2) or human TLR2 (HEK-Blue™ hTLR2) with an NF-κB-inducible secreted embryonic alkaline phosphatase (SEAP) as the reporter gene. The SEAP reporter gene is placed under the control of the NF-κB and AP-inducible promoter. Stimulation with the corresponding TLR ligand activates NF-κB and AP-1, which induces the production of SEAP. Detection of SEAP is measured following culturing cells in HEK-Blue™ Detection media (InvivoGen). HEK-Blue™ Detection contains a SEAP substrate, which upon hydrolysis by SEAP produces a colorimetric change allowing for detection of SEAP as the protein is secreted. […] These assays were carried out using RAW-Blue™ Cells (InvivoGen), derived from RAW 264.7 mouse leukemic monocytic macrophage cell line (ATCC, CRL 2278) stably overexpressing a NF-κB/AP-1 inducible SEAP reporter constructs.
(§2) To perform the assay, cells were seeded on 96 well microliter plates at 50,000 or 100,000 cells per well for HEK-Blue™ Cells and RAW-Blue™ Cells respectively, and cultured at 37° C. in the presence of the conjugated compounds. The conjugated compounds were prepared as follows: First, stock solutions of the small molecule conjugated compounds of the invention were prepared in ethanol or water to a concentration of 10 mg/ml. A working dilution of the conjugated TLR7-TLR2 small molecules was made up in water and added to cells at a final range of concentrations from 10 μg/mL to 10 pg/ml. The working dilutions of the conjugated TLR7-TLR2 small molecules as the stated concentrations were directly added to the reporter cell lines and incubated at 37° C. for 24 hours. After 24 hours of incubation, the effect on reporter gene activity was determined by reading the OD at 655 nm using iMark™ Microplate Reader (BIO-RAD).
(§3) The conjugated compounds were tested alone for their ability to specifically activate TLR7 and TLR2, alongside the known TLR7 activators R848 or CL264 (InvivoGen) and the TLR2 agonists Pam2CSK4 or Pam3CSK4 (InvivoGen). The specificity of the TLR activity was determined by use of reporter cell lines to the other TLRs (data not shown). […] The molecules show a tendency to activate mouse TLR7 with greater sensitivity than human TLR7. […] Furthermore, dose-dependent responses of the conjugated compounds indicate significant TLR activities of TLR7 and TLR2 compared to the corresponding controls.

[2] = molecular target: T2, murine TLR7 (Mus musculus, UniProt P58681); assay: HEK-Blue mTLR7 NF-κB/AP-1 SEAP reporter cell assay; format: cell-based; conditions: HEK-Blue mTLR7 reporter cells, 10 μg/mL to 10 pg/ml, 24 hours, OD at 655 nm; FIGS. 2A, 2B
T2 construct: host or cells: HEK293 (HEK-Blue mTLR7)
T2 sequence (P58681 27-1050): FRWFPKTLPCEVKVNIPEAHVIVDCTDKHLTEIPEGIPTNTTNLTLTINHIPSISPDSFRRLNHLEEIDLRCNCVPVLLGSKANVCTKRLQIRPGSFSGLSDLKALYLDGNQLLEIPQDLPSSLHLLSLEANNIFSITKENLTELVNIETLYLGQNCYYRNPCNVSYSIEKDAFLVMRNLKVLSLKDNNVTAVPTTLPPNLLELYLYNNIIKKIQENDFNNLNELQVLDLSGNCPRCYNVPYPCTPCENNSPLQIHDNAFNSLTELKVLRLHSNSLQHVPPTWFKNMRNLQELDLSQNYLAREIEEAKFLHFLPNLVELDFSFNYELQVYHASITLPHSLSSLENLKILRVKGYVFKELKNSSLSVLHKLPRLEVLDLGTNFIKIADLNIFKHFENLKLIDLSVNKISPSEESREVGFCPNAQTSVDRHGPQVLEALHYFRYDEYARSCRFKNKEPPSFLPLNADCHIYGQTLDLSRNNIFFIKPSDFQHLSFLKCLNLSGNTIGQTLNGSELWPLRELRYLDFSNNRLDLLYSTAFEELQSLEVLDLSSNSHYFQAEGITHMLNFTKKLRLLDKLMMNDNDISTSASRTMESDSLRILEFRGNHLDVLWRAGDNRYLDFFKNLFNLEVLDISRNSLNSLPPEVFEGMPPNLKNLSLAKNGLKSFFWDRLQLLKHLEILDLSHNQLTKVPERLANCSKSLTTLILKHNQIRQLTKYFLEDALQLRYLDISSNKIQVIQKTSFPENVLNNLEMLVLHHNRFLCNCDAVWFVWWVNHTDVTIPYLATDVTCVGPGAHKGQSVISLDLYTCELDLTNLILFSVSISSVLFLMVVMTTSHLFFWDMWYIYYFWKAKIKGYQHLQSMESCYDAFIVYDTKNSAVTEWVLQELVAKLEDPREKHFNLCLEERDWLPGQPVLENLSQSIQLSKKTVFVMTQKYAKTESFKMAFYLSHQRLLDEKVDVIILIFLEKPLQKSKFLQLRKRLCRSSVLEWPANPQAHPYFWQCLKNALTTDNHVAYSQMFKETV
Experimental: as §1, §2, §3

[3] = molecular target: T3, human TLR2 (Homo sapiens, UniProt O60603); assay: HEK-Blue hTLR2 NF-κB/AP-1 SEAP reporter cell assay; format: cell-based; conditions: HEK-Blue hTLR2 reporter cells, 10 μg/mL to 10 pg/ml, 24 hours, OD at 655 nm; FIGS. 3A, 3B
T3 construct: host or cells: HEK293 (HEK-Blue hTLR2)
Experimental: as §1, §2, §3

[4] = molecular target: T4, murine TLR2 (Mus musculus, UniProt Q9QUN7); assay: HEK-Blue mTLR2 NF-κB/AP-1 SEAP reporter cell assay; format: cell-based; conditions: HEK-Blue mTLR2 reporter cells, 10 μg/mL to 10 pg/ml, 24 hours, OD at 655 nm; FIG. 4
T4 construct: host or cells: HEK293 (HEK-Blue mTLR2)
Experimental: as §1, §2, §3

[5] = system: NF-κB in RAW-Blue™ Cells (RAW 264.7, endogenous TLR7 and TLR2); assay: RAW-Blue Cells NF-κB/AP-1 inducible SEAP reporter assay; format: cell-based, mouse; conditions: murine monocytic macrophage cell line RAW 264.7, 24 hours, OD at 655 nm; FIGS. 5A, 5B
Experimental: as §1, §2, §3

T4 sequence (Q9QUN7 25-784): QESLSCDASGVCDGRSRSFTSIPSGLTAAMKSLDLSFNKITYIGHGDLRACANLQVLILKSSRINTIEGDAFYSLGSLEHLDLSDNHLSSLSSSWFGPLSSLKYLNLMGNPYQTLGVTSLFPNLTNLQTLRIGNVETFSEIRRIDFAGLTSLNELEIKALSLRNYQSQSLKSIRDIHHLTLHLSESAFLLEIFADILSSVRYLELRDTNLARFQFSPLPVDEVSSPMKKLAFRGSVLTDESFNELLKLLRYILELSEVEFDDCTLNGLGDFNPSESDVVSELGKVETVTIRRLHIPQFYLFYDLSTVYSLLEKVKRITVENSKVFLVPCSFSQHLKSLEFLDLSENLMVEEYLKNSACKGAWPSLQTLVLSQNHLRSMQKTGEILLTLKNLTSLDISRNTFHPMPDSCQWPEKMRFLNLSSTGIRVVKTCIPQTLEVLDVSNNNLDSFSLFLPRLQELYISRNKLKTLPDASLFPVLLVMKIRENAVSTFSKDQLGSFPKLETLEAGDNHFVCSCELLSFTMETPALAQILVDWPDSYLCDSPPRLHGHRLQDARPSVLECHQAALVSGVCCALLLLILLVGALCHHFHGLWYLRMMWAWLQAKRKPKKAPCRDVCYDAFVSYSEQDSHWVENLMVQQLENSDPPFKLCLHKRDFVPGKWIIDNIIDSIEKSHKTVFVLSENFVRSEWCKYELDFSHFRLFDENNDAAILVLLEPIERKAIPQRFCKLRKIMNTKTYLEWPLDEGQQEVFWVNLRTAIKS
T3 sequence (O60603 21-784): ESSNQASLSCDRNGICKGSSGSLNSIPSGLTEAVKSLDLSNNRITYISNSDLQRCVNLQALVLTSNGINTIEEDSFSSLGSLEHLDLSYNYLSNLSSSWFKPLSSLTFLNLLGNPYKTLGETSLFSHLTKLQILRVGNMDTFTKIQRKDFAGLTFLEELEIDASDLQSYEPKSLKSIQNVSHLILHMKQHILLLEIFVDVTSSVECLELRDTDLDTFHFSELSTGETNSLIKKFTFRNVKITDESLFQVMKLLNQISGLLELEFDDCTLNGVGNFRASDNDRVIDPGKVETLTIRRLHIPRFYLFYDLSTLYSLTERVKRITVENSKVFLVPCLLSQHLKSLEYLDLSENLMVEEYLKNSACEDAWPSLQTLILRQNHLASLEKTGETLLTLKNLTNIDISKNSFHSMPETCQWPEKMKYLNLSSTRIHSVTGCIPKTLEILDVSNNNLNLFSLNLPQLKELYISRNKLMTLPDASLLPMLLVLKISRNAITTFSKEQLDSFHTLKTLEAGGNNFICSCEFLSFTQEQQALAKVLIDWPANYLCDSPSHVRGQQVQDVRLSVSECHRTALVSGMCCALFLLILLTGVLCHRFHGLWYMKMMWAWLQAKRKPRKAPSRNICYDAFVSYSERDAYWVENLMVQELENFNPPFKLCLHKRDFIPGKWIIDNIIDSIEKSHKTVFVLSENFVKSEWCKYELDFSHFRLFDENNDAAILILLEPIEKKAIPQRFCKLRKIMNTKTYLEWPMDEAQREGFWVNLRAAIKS

Compound	ability to activate TLR7 receptors (human TLR7) [1]	ability to activate TLR7 receptors (murine TLR7) [2]	ability to activate TLR2 receptor (human TLR2) [3]	ability to activate TLR2 receptor (murine TLR2) [4]	induction of NF-κB in RAW-Blue cells [5]
CCCCCCCCCCCCCC(=O)OCCSC[C@H](N)C(=O)Nc1ccc(Cn2c(O)nc3c(N)nc(NCCCC)nc32)cc1 [CL555, (R)-2-(2-amino-3-(4-((6-amino-2-(butylamino)-8-hydroxy-9H-purin-9-yl)methyl)phenylamino)-3-oxopropylthio)ethyl tetradecanoate]	activate TLR7 receptors	activate TLR7 receptors	activate TLR2 receptor	activate TLR2 receptor	activate NF-κB
CCCCCCCCCCCCCC(=O)OCCSC[C@H](N)C(=O)N[C@@H](CCC(=O)Nc1ccc(Cn2c(O)nc3c(N)nc(NCCCC)nc32)cc1)C(=O)OC [CL572, 2-((R)-2-amino-3-((S)-5-(4-((6-amino-2-(butylamino)-8-hydroxy-9H-purin-9-yl)methyl)phenylamino)-1-methoxy-1,5-dioxopentan-2-ylamino)-3-oxopropylthio)ethyl tetradecanoate]	activate TLR7 receptors	activate TLR7 receptors	activate TLR2 receptor	activate TLR2 receptor	
CCCCCCCCCCCCCCCC(=O)OCCSC[C@H](N)C(=O)Nc1ccc(Cn2c(O)nc3c(N)nc(NCCCC)nc32)cc1 [CL556, (R)-2-(2-amino-3-(4-((6-amino-2-(butylamino)-8-hydroxy-9H-purin-9-yl)methyl)phenylamino)-3-oxopropylthio)ethyl palmitate]	activate TLR7 receptors	activate TLR7 receptors	activate TLR2 receptor	activate TLR2 receptor	activate NF-κB
CCCCCCCCCCCCCCCC(=O)OCC(CSC[C@H](N)C(=O)N[C@@H](CO)C(=O)Nc1ccc(Cn2c(O)nc3c(N)nc(NCCCC)nc32)cc1)OC(=O)CCCCCCCCCCCCCCC (stereo partly drawn) [CL453, 3-((R)-2-amino-3-((S)-1-(4-((6-amino-2-(butylamino)-8-hydroxy-9H-purin-9-yl)methyl)phenylamino)-3-hydroxy-1-oxopropan-2-ylamino)-3-oxopropylthio)propane-1,2-diyl dipalmitate]	activate TLR7 receptors	activate TLR7 receptors	activate TLR2 receptor		activate NF-κB
CCCCCCCCCCCCCCCCCC(=O)OCCSC[C@H](N)C(=O)N[C@@H](CO)C(=O)Nc1ccc(Cn2c(O)nc3c(N)nc(NCCCC)nc32)cc1 [CL560, 2-((R)-2-amino-3-((S)-1-(4-((6-amino-2-(butylamino)-8-hydroxy-9H-purin-9-yl)methyl)phenylamino)-3-hydroxy-1-oxopropan-2-ylamino)-3-oxopropylthio)ethyl stearate]	activate TLR7 receptors	activate TLR7 receptors	activate TLR2 receptor	activate TLR2 receptor	activate NF-κB
CCCCCCCCCCCCCCCC(=O)N[C@@H](CSCC(COC(=O)CCCCCCCCCCCCCCC)OC(=O)CCCCCCCCCCCCCCC)C(=O)Nc1ccc(Cn2c(O)nc3c(N)nc(NCCCC)nc32)cc1 (mixture of isomers) [CL446, (R)-3-(3-(4-((6-amino-2-(butylamino)-8-hydroxy-9H-purin-9-yl)methyl)phenylamino)-3-oxo-2-palmitamidopropylthio)propane-1,2-diyl dipalmitate]	activate TLR7 receptors	activate TLR7 receptors	activate TLR2 receptor		activate NF-κB
